pEC50, pIC50: −log10 of the molar value.
What was measured:
[1] = target: PD-L1 His protein / PD-1 Fc protein (Homo sapiens (Human), UniProt Q9NZQ7); test: HTRF Assay (PD-1/PD-L1 interaction); assay type: binding; details: PD-L1 His 6 nM, PD-1 Fc 6 nM
human PD-L1 = human PD-L1 (Homo sapiens (Human), UniProt Q9NZQ7); test: T cell activation luciferase reporter cell culture system (T Cell Activation Assay); assay type: cell-based; details: luciferase reporter assay; PD-L1 aAPC/CHO-K1 cells with PD-1 effector Jurkat T cells
Sequence of human PD-L1 (Q9NZQ7 19-290): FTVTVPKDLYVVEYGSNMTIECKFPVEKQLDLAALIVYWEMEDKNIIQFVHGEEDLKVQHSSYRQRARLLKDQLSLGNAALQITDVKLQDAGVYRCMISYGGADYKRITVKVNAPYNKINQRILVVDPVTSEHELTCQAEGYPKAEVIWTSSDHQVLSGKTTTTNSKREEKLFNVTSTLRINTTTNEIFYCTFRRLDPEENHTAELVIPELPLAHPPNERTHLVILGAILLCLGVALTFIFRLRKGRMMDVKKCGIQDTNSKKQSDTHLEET

Sequence of PD-L1 His protein / PD-1 Fc protein (Q9NZQ7 19-238): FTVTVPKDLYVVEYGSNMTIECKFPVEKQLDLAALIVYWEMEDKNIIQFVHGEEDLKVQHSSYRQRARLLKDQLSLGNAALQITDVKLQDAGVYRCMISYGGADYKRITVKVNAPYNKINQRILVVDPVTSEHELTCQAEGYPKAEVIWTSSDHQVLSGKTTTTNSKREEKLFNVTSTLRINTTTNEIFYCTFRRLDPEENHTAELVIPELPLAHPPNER

SMILES | pIC50 [1] | pEC50 (human PD-L1)
COc1cc(-c2nccc(-c3cccc(-c4ccc(CNC5CCN(C(C)=O)CC5)c(OC)n4)c3Cl)c2Cl)ccc1CN1CCC(NC(C)=O)CC1 [Example 325, N-(1-(4-(4-(3-(5-(((1-Acetylpiperidin-4-yl)amino)methyl)-6-methoxypyridin-2-yl)-2-chlorophenyl)-3-chloropyridin-2-yl)-2-methoxybenzyl)piperidin-4-yl)acetamide] | 8.56 | 7.40
COc1cc(-c2nccc(-c3cccc(-c4ccc(CNC5CCN(C(C)C)CC5)c(OC)n4)c3Cl)c2Cl)ccc1CNC1CCN(C(C)C)CC1 [Example 326, N-((6-(2-Chloro-3-(3-chloro-2-(4-(((1-isopropylpiperidin-4-yl)amino)methyl)-3-methoxyphenyl)pyridin-4-yl)phenyl)-2-methoxypyridin-3-yl)methyl)-1-isopropylpiperidin-4-amine] | 8.37 | 7.37
COc1cc(-c2nccc(-c3cccc(-c4ccc(CNC5CCC(F)(F)CC5)c(OC)n4)c3Cl)c2Cl)ccc1CNC1CCC(F)(F)CC1 [Example 327, N-((6-(2-Chloro-3-(3-chloro-2-(4-(((4,4-difluorocyclohexyl)amino)methyl)-3-methoxyphenyl)pyridin-4-yl)phenyl)-2-methoxypyridin-3-yl)methyl)-4,4-difluorocyclohexan-1-amine] | 8.77 | 6.75
COc1cc(-c2nccc(-c3cccc(-c4ccc(CNC5CCN(CCO)CC5)c(OC)n4)c3Cl)c2Cl)ccc1CNC1CCN(CCO)CC1 [Example 328, 2-(4-(((6-(2-Chloro-3-(3-chloro-2-(4-(((1-(2-hydroxyethyl)piperidin-4-yl)amino)methyl)-3-methoxyphenyl)pyridin-4-yl)phenyl)-2-methoxypyridin-3-yl)methyl)amino)piperidin-1-yl)ethan-1-ol] | 8.82 | 7.55
CCC(=O)N1CCC(NCc2ccc(-c3cccc(-c4ccnc(-c5cc(F)c(CNC6CCN(C(=O)CC)CC6)c(OC)c5)c4Cl)c3Cl)nc2OC)CC1 [Example 331, 1-(4-(((6-(2-Chloro-3-(3-chloro-2-(3-fluoro-5-methoxy-4-(((1-propionylpiperidin-4-yl)amino)methyl)phenyl)pyridin-4-yl)phenyl)-2-methoxypyridin-3-yl)methyl)amino)piperidin-1-yl)propan-1-one] | 7.63 | 7.77
COc1cc(-c2nccc(-c3cccc(-c4ccc(CN5CC6(CNC(=O)C6)C5)c(OC)n4)c3Cl)c2Cl)ccc1CNC1CCN(C(C)=O)CC1 [Example 332, 2-((6-(3-(2-(4-(((1-acetylpiperidin-4-yl)amino)methyl)-3-methoxyphenyl)-3-chloropyridin-4-yl)-2-chlorophenyl)-2-methoxypyridin-3-yl)methyl)-2,6-diazaspiro[3.4]octan-7-one] | 8.75 | 7.91
COc1cc(-c2nccc(-c3cccc(-c4ccc(CNC5CCN(C(C)=O)CC5)c(OC)n4)c3Cl)c2F)ccc1CNC1CCN(C(C)=O)CC1 [Example 337, 1-(4-(((6-(3-(2-(4-(((1-Acetylpiperidin-4-yl)amino)methyl)-3-methoxyphenyl)-3-fluoropyridin-4-yl)-2-chlorophenyl)-2-methoxypyridin-3-yl)methyl)amino)piperidin-1-yl)ethan-1-one] | 9.52 | 7.21
COc1cc(-c2nccc(-c3cccc(-c4ccc(CNC5CCN(C(C)=O)CC5)c(OC)n4)c3Cl)c2Cl)ccc1CN[C@@H]1COC(=O)C1 [Example 338, (S)-4-((4-(4-(3-(5-(((1-Acetylpiperidin-4-yl)amino)methyl)-6-methoxypyridin-2-yl)-2-chlorophenyl)-3-chloropyridin-2-yl)-2-methoxybenzyl)amino)dihydrofuran-2(3H)-one] | 9.77 | 7.02
